Experimental data from patent US10039729B2, “Use of kukoamine A and kukoamine B” (Tianjin Chase Sun Pharmaceutical Co., Ltd., priority 2010, dated 2018).

Tests used:
RAW264.7 cells = experiment: Western blot of IκB-α and p38 phosphorylation in RAW264.7 cells; assay type: cell-based, murine
Method: Extraction of cytoplasmic protein: RAW264.7 cells were diluted to 1×10^6/ml in DMEM supplemented with 10% (v/v) NCS; 5 ml of the above suspension was transferred into cell culture bottles and cultured at 37° C. in a 5% CO2 humidified incubator for 4 h; a preliminary experiment was first performed, in which RAW264.7 cells were stimulated by LPS (100 ng/ml), CpG DNA (10 μg/ml), TNF-α (50 ng/ml) or IL-1β (50 ng/ml) for 15, 30, 45 and 60 min respectively; for the purpose of formal experiment a medium group, a KB control group, stimulation group (LPS, CpG DNA, TNF-α or IL-1β) and a KB treatment group (LPS+KB group, CpG DNA+KB group, TNF-α+KB group and IL-1β+KB group) were established; no reagent was added in medium group; KB control group was only added with KB (200 μM); stimulation group was added with LPS (100 ng/ml), CpG DNA (10 μg/ml), TNF-α (50 ng/ml) or IL-1β (50 ng/ml); KB treatment group was added with KB (100, 200 μM) in the meantime of adding LPS, CpG DNA, TNF-α or IL-1β; the duration time of cell culture was based on the preliminary experiment (30 min); cells were washed with PBS and centrifuged to collect cells; supernatant was sucked and discarded; the cell pellet was collected for further experiment; each 20 μl cell pellet was added with 200 μl cytoplasm protein extraction reagents supplemented with PMSF, shook vigorously for 5 seconds to completely suspend and disperse the cell pellet, chilled for 10 to 15 min in an ice bath, centrifuged at 12,000 g at 4° C. for 5 min; the supernatant was instantly transferred into a precooled plastic tube, which was the cytoplasmic protein obtained by extraction;
(3) Sample preparation: Protein sample was mixed with 5× concentrated loading buffer in proportion of 4:1, and denatured at 100° C. for 5 min;
(5) Loading: Sample loading volume was adjusted according to protein concentration to ensure 20 μg protein content of each sample; samples were loaded with microsyringe (5 μl protein molecular weight marker were loaded); […]

[1] = system: murine peritoneal macrophages; experiment: Vitality of murine peritoneal macrophages (MTT method); assay type: cell-based; conditions: KB or KB plus LPS or CpG DNA; 24 h
Method: (2) Influence on vitality of murine peritoneal macrophages: Experiment methods are as above. Influences of the combination of KB with LPS or CpG DNA on vitality of murine peritoneal macrophages were assayed.

[2] = system: mice challenged by heat-killed Escherichia coli; experiment: Protection on mice challenged by lethal dose of heat-killed Escherichia coli; assay type: in vivo, Kunming mice
Method: Preparation of heat-killed Escherichia coli (E. coli) ATCC 35218: Bacteria culture was performed according to Clinical Laboratory Procedures. Single bacterial colony of E. coli from LB agar plates were picked and transferred into 10 mL sterile liquid of LB broth using a sterile inoculating loop, and cultivated at 37° C. in a shaker (250 rpm). After medium become turbid, these culture medium were then transferred to 2000 mL of fresh LB medium and cultivated at 37° C. in a shaker (250 rpm) for 12 h. The suspension was collected, transferred into 1000 ml centrifuge tube, and centrifuged at 5000 rpm for 15 min. The supernatant was discarded. The bacteria were collected, washed and resuspended into sterile saline, and then centrifuged again under the same condition. Above-mentioned process was repeated thrice. The bacteria pellet was resuspended with a pipet in 50 ml sterile saline, transferred into 100 ml saline bottle, and boiled in electric furnace for 30 min. Then the suspension of heat-killed Escherichia coli was obtained. The suspension of E. coli was diluted by 100 fold, and measured OD value at 600 nm on nucleic acid protein analyzer. Conversion was made according to the regression equation of OD value and concentration, and the suspension was diluted according to the conversion result. Then the operating fluids for mice injection were obtained.
Observation of CL-4b protection on mice challenged by heat-killed Escherichia coli: A total of […] Kunming mice (18˜20 g), half male and half female, were divided into three groups randomly: CL-4b control group, heat-killed E. coli group and CL-4b treatment group. Each group has 10 mice, half male and half female. CL-4b control group was injected with CL-4b (60 mg/kg) and sterile saline; heat-killed E. coli group was injected with heat-killed Escherichia coli (1.0×10^10 CFU/ml) and sterile saline; CL-4b treatment group was injected with CL-4 ([…]) at 10 min after heat-killed E. coli injection. The injection volume of each solution was 200 μl per 20 g body weight via tail vein. […]
(1) Single dose experiment: Experiment 1: A total of 40 Kunming mice (18-20 g), half male and half female, were divided into two groups randomly, heat-killed E. coli control group and KB (30 mg/kg) treatment group; each group has 20 mice; after animal weighing, heat-killed E. coli group was injected with heat-killed Escherichia coli (200 μl per 20 g body weight) and sterile saline (200 μl per 20 g body weight); KB treatment group was injected with KB (200 μl per 20 g body weight) at 5 min after heat-killed E. coli was injected; the injection doses of heat-killed E. coli were 1.0×10^11 CFU/kg, and injection doses of KB were 30 mg/kg. […]

[3] = KB 100 and 200 μM, 30 min, western blot
[4] = single dose KB 60 mg/kg, E. coli 1.0×10^11 CFU/kg

NCCCN(CCCCNCCCNC(=O)CCc1ccc(O)c(O)c1)C(=O)CCc1ccc(O)c(O)c1 [KB, Kukoamine B] was tested, and the “expression of IκB-α and p-IκB-α, KB alone” value (RAW264.7 cells; KB 200 μM alone vs medium group) was “had no influence”, the “degradation of IκB-α and up-regulated expression of p-IκB-α induced by LPS and CpG DNA” value (RAW264.7 cells; [3]) was “both were significantly inhibited” and the “p-p38 expression induced by LPS and CpG DNA” value (RAW264.7 cells; [3]) was “significantly inhibited”. For the same compound, the “vitality of murine peritoneal macrophages” value [1] was “The same result was also obtained”, the “survival rates, multiple dose” value ([2]; KB 1.25, 2.5 and 5 mg/kg every 8 h for 3 days) was “improve survival rates” and the “mortality rate in 7 days, single dose” value ([2]; KB 15, 30 and 60 mg/kg 5 min after heat-killed E. coli) was “decreased with the increasing doses of KB”. For the same compound, the “protective effect, KB given after 2 h (4, 6 and 8 h)” value [2, 4] was “no longer has a significant protective effect” and the “survival rate, KB given 2 h after heat-killed E. coli” value [2, 4] was “still can increase the survival rate”.
